Results as given in the OligoGym collection.
Values joined by “and” are separate entries in the source; they are usually repeats but may differ in a detail not shown here. Equal values may be shown once. HELM strings list units from the 5' end as sugar, base in round brackets, then linkage (d deoxyribose, r ribose, m 2'-O-methyl, p phosphodiester). Methylation of C is not given here. [moe] = 2'-O-(2-methoxyethyl) (MOE); [cEt] = constrained ethyl (cEt); [sp] = phosphorothioate linkage

Biological target: HBV
Conditions: ASO

Substance	target mRNA inhibition (HepG2, 0.07 µM)	further results
RNA1{[moe](A)[sp].[moe](T)[sp].[moe](T)[sp].d(T)[sp].d(A)[sp].d(T)[sp].d(G)[sp].d(C)[sp].d(C)[sp].d(T)[sp].d(A)[sp].d(C)[sp].[moe](A)[sp].[moe](G)[sp].[moe](C)[sp].[moe](C)[sp].[moe](T)}$$$$V2.0	58% and 50%	–
RNA1{[moe](C)[sp].[cEt](A)[sp].[cEt](A)[sp].d(A)[sp].d(T)[sp].d(G)[sp].d(G)[sp].d(C)[sp].d(A)[sp].d(C)[sp].d(T)[sp].d(A)[sp].d(G)[sp].[cEt](T)[sp].[cEt](A)[sp].[moe](A)}$$$$V2.0	55% and 64%	–
RNA1{[moe](C)[sp].[cEt](A)[sp].d(C)[sp].d(T)[sp].d(G)[sp].d(A)[sp].d(A)[sp].d(C)[sp].d(A)[sp].d(A)[sp].d(A)[sp].d(T)[sp].[cEt](G)[sp].[moe](G)[sp].[cEt](C)[sp].[moe](A)}$$$$V2.0	–	target mRNA inhibition (HepG2, 0.0092593 µM): 5%; target mRNA inhibition (HepG2, 0.0277778 µM): 26%; target mRNA inhibition (HepG2, 0.0833333 µM): 64%; target mRNA inhibition (HepG2, 0.25 µM): 82%
RNA1{[moe](C)[sp].[cEt](C)[sp].[cEt](A)[sp].d(A)[sp].d(G)[sp].d(G)[sp].d(C)[sp].d(A)[sp].d(C)[sp].d(A)[sp].d(G)[sp].d(C)[sp].d(T)[sp].[cEt](T)[sp].[cEt](G)[sp].[moe](G)}$$$$V2.0	1% and 0%	–
RNA1{[moe](C)[sp].[cEt](C)[sp].[cEt](A)[sp].d(A)[sp].d(T)[sp].d(T)[sp].d(T)[sp].d(A)[sp].d(T)[sp].d(G)[sp].d(C)[sp].d(C)[sp].d(T)[sp].[cEt](A)[sp].[cEt](C)[sp].[moe](A)}$$$$V2.0	42% and 18%	–
RNA1{[moe](C)[sp].[cEt](C)[sp].[cEt](A)[sp].d(C)[sp].d(G)[sp].d(A)[sp].d(G)[sp].d(T)[sp].d(C)[sp].d(T)[sp].d(A)[sp].d(G)[sp].d(A)[sp].[cEt](C)[sp].[cEt](T)[sp].[moe](C)}$$$$V2.0	0%	–
RNA1{[moe](C)[sp].[cEt](C)[sp].[cEt](A)[sp].d(C)[sp].d(T)[sp].d(G)[sp].d(A)[sp].d(A)[sp].d(C)[sp].d(A)[sp].d(A)[sp].d(A)[sp].d(T)[sp].[cEt](G)[sp].[cEt](G)[sp].[moe](C)}$$$$V2.0	78% and 84%	target mRNA inhibition (HepG2, 0.0092593 µM): 11%; target mRNA inhibition (HepG2, 0.0277778 µM): 28%; target mRNA inhibition (HepG2, 0.0833333 µM): 68%; target mRNA inhibition (HepG2, 0.25 µM): 89%
RNA1{[moe](C)[sp].[cEt](G)[sp].[cEt](A)[sp].d(A)[sp].d(C)[sp].d(C)[sp].d(A)[sp].d(C)[sp].d(T)[sp].d(G)[sp].d(A)[sp].d(A)[sp].d(C)[sp].[cEt](A)[sp].[cEt](A)[sp].[moe](A)}$$$$V2.0	64% and 48%	–
RNA1{[moe](C)[sp].[cEt](G)[sp].[cEt](C)[sp].d(A)[sp].d(G)[sp].d(T)[sp].d(A)[sp].d(T)[sp].d(G)[sp].d(G)[sp].d(A)[sp].d(T)[sp].d(C)[sp].[cEt](G)[sp].[cEt](G)[sp].[moe](C)}$$$$V2.0	81% and 78%	–
RNA1{[moe](C)[sp].[cEt](G)[sp].d(G)[sp].d(G)[sp].d(C)[sp].d(A)[sp].d(A)[sp].d(C)[sp].d(A)[sp].d(T)[sp].d(A)[sp].d(C)[sp].[cEt](C)[sp].[moe](T)[sp].[cEt](T)[sp].[moe](G)}$$$$V2.0	72% and 65%	–
RNA1{[moe](C)[sp].[cEt](T)[sp].[cEt](G)[sp].d(A)[sp].d(A)[sp].d(C)[sp].d(A)[sp].d(A)[sp].d(A)[sp].d(T)[sp].d(G)[sp].d(G)[sp].d(C)[sp].[cEt](A)[sp].[cEt](C)[sp].[moe](T)}$$$$V2.0	69% and 58%	–
RNA1{[moe](C)[sp].[cEt](T)[sp].d(A)[sp].d(G)[sp].d(T)[sp].d(A)[sp].d(A)[sp].d(A)[sp].d(C)[sp].d(T)[sp].d(G)[sp].d(A)[sp].[cEt](G)[sp].[moe](C)[sp].[cEt](C)[sp].[moe](A)}$$$$V2.0	74% and 76%	–
RNA1{[moe](C)[sp].[moe](A)[sp].[moe](A)[sp].d(T)[sp].d(T)[sp].d(T)[sp].d(A)[sp].d(T)[sp].d(G)[sp].d(C)[sp].d(C)[sp].d(T)[sp].d(A)[sp].[cEt](C)[sp].[cEt](A)[sp].[cEt](G)}$$$$V2.0	30% and 20%	–
RNA1{[moe](C)[sp].[moe](A)[sp].[moe](C)[sp].[moe](T)[sp].[moe](A)[sp].d(G)[sp].d(T)[sp].d(A)[sp].d(A)[sp].d(A)[sp].d(C)[sp].d(T)[sp].d(G)[sp].d(A)[sp].[moe](G)[sp].[moe](C)}$$$$V2.0	59% and 60%	–
